Measurements published in US20100172845A1, “COMPOSITIONS AND METHODS FOR TREATING MYCOBACTERIAL INFECTIONS” (BOARD OF REGENTS OF THE UNIVERSITY OF TEXAS SYSTEM, priority 2007, published 2010).
Entries after “also recorded” stand apart in the source; their conditions may differ.

How the values were obtained:
MTB = assay: Growth of MTB in the presence of surfactant; format: cell-based, Mycobacterium tuberculosis; conditions: 0.3% surfactant
Erdman strain of MTB = assay: Effect of surfactants on corded state and number of MTB in vitro (microscopy, acid-fast staining); format: cell-based, Mycobacterium tuberculosis; conditions: for bactericidal action on MTB: 1% (wt/vol.), OG 24 hr, DDM 2 hr
[1] = mouse, in vivo
[2] = 1% (wt/vol.) surfactant, 30 min exposure
[3] = 1% (wt/vol.) surfactant, 2 hr exposure

| Compound | growth of MTB and mycolic acid coat (MTB) | number of bacteria in the background (higher power view) (Erdman strain of MTB; [2]) | reversal of aggregation / number of cords of MTB (Erdman strain of MTB; [2]) | decrease in the corded state of MTB (Erdman strain of MTB; 1% (wt/vol.) surfactant, 24 hr incubation) | bacteria eliminated (50× image) (Erdman strain of MTB; 1% (wt/vol.) surfactant, within 24 hours of treatment) | bactericidal action on MTB (Erdman strain of MTB) | body weight versus control animals [1] | histological examination of spleens and livers [1] | histopathological differences of lung, liver and spleen tissues versus control [1] | leukocyte count and cytologic composition of the lavage fluid [1] | tolerability by the lungs [1] | elimination of bacteria (Erdman strain of MTB; [3]) | loss / reduction of cording of MTB (Erdman strain of MTB; [3]) | reversal of cording of corded MTB preparation (Erdman strain of MTB; 1% surfactant, over the time period of the study) |
| --- | --- | --- | --- | --- | --- | --- | --- | --- | --- | --- | --- | --- | --- | --- |
| CCCCCCCCO[C@@H]1O[C@H](CO)[C@@H](O)[C@H](O)[C@H]1O [OG, n-octyl-β-D-glucoside] | will grow in the presence of 0.3% OG but are not surrounded by their extensive coat of mycolic acid | significant loss in the number of bacteria in the background | major reduction in the number of the cords; also recorded: rapidly reversed aggregation of MTB | more pronounced | over 90% | acts as a bacteriocide; also recorded: bactericidal | no difference in the body weight | did not reveal any visible changes | no identifiable histopathological differences | no change were found | well tolerated by the lungs |  |  |  |
| CCCCCCCCCCCCO[C@@H]1O[C@H](CO)[C@@H](O[C@H]2O[C@H](CO)[C@@H](O)[C@H](O)[C@H]2O)[C@H](O)[C@H]1O [DDM, n-dodecyl-β-D-maltoside] |  |  |  |  |  | bactericidal | no difference in the body weight | did not reveal any visible changes | no identifiable histopathological differences | no change were found | well tolerated by the lungs | elimination of most of the bacteria | reduce cording to a similar extent of OG after 24 hr exposure; also recorded: rapid loss of cording |  |
| CCCCCCCCCCCCCCCC(=O)OC[C@H](COP(=O)([O-])OCC[N+](C)(C)C)OC(=O)CCCCCCCCCCCCCCC [DPPC, 1,2-dipalmitoyl-sn-3-glycerophosphoryl choline, reference compound] |  |  |  |  |  |  |  |  |  |  |  |  |  | did not reverse cording |
